# Values of other authors in patent US7189385B2, “Tooth whitening compositions” (Discus Dental Impressions, Inc., priority 1997, dated 2007).
# Settings: listed as GRAS, 21 CFR 184.1901
smiles,measurement,value
CC(=O)OCC(COC(C)=O)OC(C)=O [Glyceryl triacetate],toxicity,extremely low order of toxicity
